Test results as given in US20250281499A1, “FUSED AMINO PYRIMIDINE COMPOUNDS FOR TREATMENT OF NEUROPATHIC AND NEURO-INFLAMMATORY PAIN” (Ovid Therapeutics Inc., priority 2024, published 2025).

What was measured:
[1] = system: panel of 144 protein kinases; assay: Protein kinase panel (SelectScreen; Thermofisher); format: biochemical; conditions: 144 protein kinases incl. PKC isoforms, OSR1, SPAK, WNK
Method: Aliquots of HEK-293 cells expressing, KCC2 were exposed to 30 μM SSA, heated from 37-55° C. The remaining level of soluble native KCC2 at each temperature was measured by immunoblotting and normalized to the level seen at 37° C. which was given a value of 1. […] This panel included protein kinase C isoforms, OSR1, SPAK (STK39) and with-no-lysine kinases (WNK), all of which phosphorylate KCC2 on multiple residues to indirectly modify its activity (Kahle et al., 2013, supra; Smalley et al., 2020, supra).

hippocampal neurons = assay: Whole cell patch-clamp with imposed Cl− load in hippocampal neurons; format: cell-based, Sprague Dawley; conditions: 1 h incubation, 32 mM Cl− load; controls −47.4±2.3
Method: Neuronal Cultures. Hippocampal neurons were prepared from Sprague Dawley E18 embryos and plated at 450,000 per dish and maintained at 37° C. in a humidified 5% CO2 incubator for 10-25 days before experimentation (Lee et al., Nat. Neurosci. 14, 736-743 (2011)).
Neuronal Patch clamp assays. Neuronal cell culture recordings were performed in bath saline at 34° C. For gramicidin perforated-patch experiments, pipettes contained (in mM): 140 KCl and 10 HEPES, pH 7.4 KOH. For whole-cell experiments, pipettes contained (in mM): 115 K-meth-SO4, 30 KCl, 2 Mg-ATP, 4 Na-ATP, 0.4 Na-GTP, and 10 HEPES, pH 7.4 KOH. Bath saline contained the following (in mM): 140 NaCl, 2.5 KCl, 2.5 CaCl2, 2.5 MgCl2, 10 HEPES, and 11 glucose, pH 7.4 NaOH (Kontou et al., 2021, supra). All compound solutions were applied to cells using a three-barreled 700 μm pipe positioned just above the cell (Warner Instruments). […] All voltages from whole-cell experiments were corrected offline using a calculated liquid junction potential value (13.6 mV) in Clampex (Molecular Devices). For gramicidin perforated-patch experiments, intracellular Cl^− values were back-calculated using measured EGABA values and the Nernst equation: […]
5 min after break-in, an initial EGABA value was determined and the effects of a subsequent 5 min incubation with VU0463271 was assessed.

KCC2 = biological target: T1, KCC2 (Homo sapiens, UniProt Q9H2X9); assay: Cell surface biotinylation of KCC2 in HEK-293 cells; format: cell-based; conditions: 15 min
T1 construct: expressed in transfected cells; host or cells: HEK-293 (ATCC CRL-1573), Lipofectamine 2000, used 48-72 h after transfection
T1 sequence (Q9H2X9 1-1116 isoform Q9H2X9-2): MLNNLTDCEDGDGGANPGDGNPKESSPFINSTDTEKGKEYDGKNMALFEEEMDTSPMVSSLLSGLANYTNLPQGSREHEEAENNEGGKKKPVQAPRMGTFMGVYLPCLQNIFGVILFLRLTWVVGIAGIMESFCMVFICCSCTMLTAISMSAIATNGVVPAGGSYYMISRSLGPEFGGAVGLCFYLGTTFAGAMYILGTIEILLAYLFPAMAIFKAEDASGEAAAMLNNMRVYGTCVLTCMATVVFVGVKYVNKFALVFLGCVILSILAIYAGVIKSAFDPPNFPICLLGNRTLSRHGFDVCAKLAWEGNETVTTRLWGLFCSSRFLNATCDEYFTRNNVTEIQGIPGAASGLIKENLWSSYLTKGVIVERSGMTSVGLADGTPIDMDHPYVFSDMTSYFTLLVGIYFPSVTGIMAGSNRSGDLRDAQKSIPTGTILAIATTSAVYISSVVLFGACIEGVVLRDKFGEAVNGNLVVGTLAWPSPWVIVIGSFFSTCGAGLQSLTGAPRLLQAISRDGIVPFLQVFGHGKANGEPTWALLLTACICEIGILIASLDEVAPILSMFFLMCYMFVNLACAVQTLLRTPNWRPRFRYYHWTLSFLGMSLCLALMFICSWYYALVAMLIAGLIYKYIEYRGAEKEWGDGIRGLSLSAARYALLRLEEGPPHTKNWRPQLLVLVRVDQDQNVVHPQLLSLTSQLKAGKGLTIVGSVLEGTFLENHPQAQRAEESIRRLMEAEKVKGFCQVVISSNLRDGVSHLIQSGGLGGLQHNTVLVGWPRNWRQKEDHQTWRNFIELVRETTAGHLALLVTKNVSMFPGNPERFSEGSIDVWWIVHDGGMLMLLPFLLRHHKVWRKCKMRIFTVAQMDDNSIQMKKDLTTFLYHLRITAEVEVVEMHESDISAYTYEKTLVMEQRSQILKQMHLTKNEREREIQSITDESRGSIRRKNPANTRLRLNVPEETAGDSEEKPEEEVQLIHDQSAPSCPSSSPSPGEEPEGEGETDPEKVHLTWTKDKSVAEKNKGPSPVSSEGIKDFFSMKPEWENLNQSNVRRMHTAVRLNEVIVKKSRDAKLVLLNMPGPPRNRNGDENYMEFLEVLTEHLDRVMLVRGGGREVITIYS
Method: Cell Culture and biotinylation. HEK-293 cells were purchased from ATCC (CRL-1573) and transfected with human KCC2 and GFP expression plasmids using Lipofectamine 2000. Cells were utilized for experimentation 48-72 h following transfection. Cells were biotinylated at 4° C. using NHS-Biotin. Following lysis and purification on immobilized avidin beads, cell surface and total fractions were subject to immunoblotting as outlined previously (Conway et al., 2017, supra).
The reliability of the biotinylation procedure was assessed via immunoblotting with antibodies against the cytosolic protein actin. Actin was present in the total lysates but was absent from the surface fractions (FIG. 2C).

SMILES: C[C@@H]1CN(c2nc3c(c(Nc4ccc(C5CCCCC5)cc4)n2)COC3)CCO1 [Compound A, (R)—N-(4-cyclohexylphenyl)-2-(2-methylmorpholino)-5,7-dihydrofuro[3,4-d]pyrimidin-4-amine]
- activity of kinase panel [1]: did not modify the activity
- basal EGABA (hippocampal neurons): −59.3±2.1 mV
- level of KCC2 on the plasma membrane (surface/total) (KCC2; 0.3 μM): 94.5 ±8.4 % of control
- level of KCC2 on the plasma membrane (surface/total) (KCC2; 3 μM): 104.7±8.4 % of control
